Measured values from PMC4137556 (Biochimica et biophysica acta, 2013).
Positions of bridges follow the written chain, without caps; N, C: chain ends. Non-standard residues stand in square brackets, D forms with d. Residues, ends and D or L forms follow the SMILES beside them. pGlu = O=C1CC[C@@H](C(=O)O)N1

Legend:
bacterial neuraminidases = conditions: cited from earlier work
[1] = system: murine cerebrocortical neuron cells; assay: Effect on neuronal Ca2+ oscillations, peptide alone; assay type: cell-based, mouse; conditions: ASPA alone, without veratridine
[2] = molecular target: voltage-gated Na+ (NaV1.2) channel (Homo sapiens, UniProt Q99250); assay: Voltage-gated Na+ channel inhibition/activation; assay type: cell-based; conditions: ASPA administered alone, up to micromolar concentrations
[3] = molecular target: voltage-gated Ca2+ (Cav1.2) channel (Homo sapiens, UniProt Q13936); assay: Voltage-gated Ca2+ channel inhibition/activation; assay type: cell-based; conditions: ASPA administered alone, up to micromolar concentrations
[4] = system: veratridine binding site of the VGSC (neurotoxin site 2)
[5] = system: neuraminidase from Arthrobacter ureafaciens; assay: Neuraminidase inhibition; assay type: biochemical; conditions: Arthrobacter ureafaciens enzyme; up to 50 μM
[6] = system: neuraminidase from Clostridium perfringens; assay type: biochemical
[7] = molecular target: neuraminidase from Vibrio cholera (Vibrio cholerae serotype O1, UniProt P0C6E9); assay: Neuraminidase inhibition; assay type: biochemical; conditions: Vibrio cholera enzyme; up to 50 μM
[8] = molecular target: T1, neuraminidase from Micromonospora viridifaciens (Micromonospora viridifaciens, UniProt Q02834); assay: Neuraminidase inhibition; assay type: biochemical; conditions: Micromonospora viridifaciens enzyme; up to 50 μM
T1 sequence (Q02834 38-647): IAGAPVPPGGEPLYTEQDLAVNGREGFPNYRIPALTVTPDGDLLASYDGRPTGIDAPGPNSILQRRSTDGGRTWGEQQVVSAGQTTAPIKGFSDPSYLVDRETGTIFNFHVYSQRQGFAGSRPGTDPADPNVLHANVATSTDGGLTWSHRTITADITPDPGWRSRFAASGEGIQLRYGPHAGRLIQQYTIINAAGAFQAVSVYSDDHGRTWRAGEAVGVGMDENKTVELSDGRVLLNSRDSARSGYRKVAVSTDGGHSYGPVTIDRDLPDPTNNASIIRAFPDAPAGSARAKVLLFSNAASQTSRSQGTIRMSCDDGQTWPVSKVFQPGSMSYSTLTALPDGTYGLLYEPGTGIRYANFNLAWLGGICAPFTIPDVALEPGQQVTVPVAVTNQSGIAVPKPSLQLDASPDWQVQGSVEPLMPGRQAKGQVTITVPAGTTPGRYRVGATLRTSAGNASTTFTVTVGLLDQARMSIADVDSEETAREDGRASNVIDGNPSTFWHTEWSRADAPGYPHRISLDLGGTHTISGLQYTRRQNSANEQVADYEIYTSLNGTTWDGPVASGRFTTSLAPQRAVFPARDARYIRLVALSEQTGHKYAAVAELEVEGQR

[9] = system: neuraminidase from recombinant influenza A virus H1N1; assay: Neuraminidase inhibition; assay type: biochemical; conditions: recombinant influenza A virus H1N1 enzyme; up to 50 μM
proteinase K = proteinase K (Parengyodontium album, UniProt P06873); assay: Proteolytic stability against proteinase K; assay type: in vitro ADME; conditions: proteinase K from Tritirachium album; 50 °C, up to 48 h
thermolysin = molecular target: T2, thermolysin (Bacillus thermoproteolyticus, UniProt P00800); assay: Proteolytic stability against thermolysin; assay type: in vitro ADME; conditions: thermolysin from Bacillus thermoprotelyticus rokko; 65 °C, up to 12 h
T2 sequence (P00800 233-548): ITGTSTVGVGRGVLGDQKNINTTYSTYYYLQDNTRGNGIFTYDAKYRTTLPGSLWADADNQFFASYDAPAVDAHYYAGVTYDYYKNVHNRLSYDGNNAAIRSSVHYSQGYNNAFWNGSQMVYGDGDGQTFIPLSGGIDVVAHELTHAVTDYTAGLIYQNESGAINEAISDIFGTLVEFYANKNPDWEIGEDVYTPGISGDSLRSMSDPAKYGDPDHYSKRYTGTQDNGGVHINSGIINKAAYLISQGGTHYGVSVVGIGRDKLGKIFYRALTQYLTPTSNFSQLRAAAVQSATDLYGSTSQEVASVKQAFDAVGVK

mice = assay: Toxicity in mice; assay type: in vivo; conditions: i.p. 40 μg/g
chicks = assay: Toxicity in chicks; assay type: in vivo; conditions: i.c.v. 60 μg/g

Sequence of neuraminidase from Vibrio cholera (P0C6E9 25-781): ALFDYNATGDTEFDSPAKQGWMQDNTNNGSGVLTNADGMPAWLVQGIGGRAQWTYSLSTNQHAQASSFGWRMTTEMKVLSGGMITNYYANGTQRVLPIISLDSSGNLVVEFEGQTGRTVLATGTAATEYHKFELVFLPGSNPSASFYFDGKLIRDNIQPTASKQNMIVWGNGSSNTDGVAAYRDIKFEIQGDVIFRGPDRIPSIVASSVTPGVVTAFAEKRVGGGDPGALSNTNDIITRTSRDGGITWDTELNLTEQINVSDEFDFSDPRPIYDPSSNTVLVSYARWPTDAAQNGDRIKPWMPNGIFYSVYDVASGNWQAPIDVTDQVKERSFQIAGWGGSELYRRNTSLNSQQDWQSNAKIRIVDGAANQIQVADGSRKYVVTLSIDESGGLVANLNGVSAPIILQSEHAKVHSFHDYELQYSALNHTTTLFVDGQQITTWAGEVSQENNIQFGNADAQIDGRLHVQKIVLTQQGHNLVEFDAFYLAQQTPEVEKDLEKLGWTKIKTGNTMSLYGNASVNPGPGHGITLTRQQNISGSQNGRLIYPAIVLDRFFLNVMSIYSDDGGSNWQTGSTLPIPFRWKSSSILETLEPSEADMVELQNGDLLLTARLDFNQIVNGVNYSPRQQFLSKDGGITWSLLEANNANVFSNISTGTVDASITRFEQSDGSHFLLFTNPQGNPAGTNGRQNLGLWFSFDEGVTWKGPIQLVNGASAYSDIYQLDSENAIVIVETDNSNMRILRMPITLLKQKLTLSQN
Sequence of voltage-gated Na+ (NaV1.2) channel (Q99250 whole entry): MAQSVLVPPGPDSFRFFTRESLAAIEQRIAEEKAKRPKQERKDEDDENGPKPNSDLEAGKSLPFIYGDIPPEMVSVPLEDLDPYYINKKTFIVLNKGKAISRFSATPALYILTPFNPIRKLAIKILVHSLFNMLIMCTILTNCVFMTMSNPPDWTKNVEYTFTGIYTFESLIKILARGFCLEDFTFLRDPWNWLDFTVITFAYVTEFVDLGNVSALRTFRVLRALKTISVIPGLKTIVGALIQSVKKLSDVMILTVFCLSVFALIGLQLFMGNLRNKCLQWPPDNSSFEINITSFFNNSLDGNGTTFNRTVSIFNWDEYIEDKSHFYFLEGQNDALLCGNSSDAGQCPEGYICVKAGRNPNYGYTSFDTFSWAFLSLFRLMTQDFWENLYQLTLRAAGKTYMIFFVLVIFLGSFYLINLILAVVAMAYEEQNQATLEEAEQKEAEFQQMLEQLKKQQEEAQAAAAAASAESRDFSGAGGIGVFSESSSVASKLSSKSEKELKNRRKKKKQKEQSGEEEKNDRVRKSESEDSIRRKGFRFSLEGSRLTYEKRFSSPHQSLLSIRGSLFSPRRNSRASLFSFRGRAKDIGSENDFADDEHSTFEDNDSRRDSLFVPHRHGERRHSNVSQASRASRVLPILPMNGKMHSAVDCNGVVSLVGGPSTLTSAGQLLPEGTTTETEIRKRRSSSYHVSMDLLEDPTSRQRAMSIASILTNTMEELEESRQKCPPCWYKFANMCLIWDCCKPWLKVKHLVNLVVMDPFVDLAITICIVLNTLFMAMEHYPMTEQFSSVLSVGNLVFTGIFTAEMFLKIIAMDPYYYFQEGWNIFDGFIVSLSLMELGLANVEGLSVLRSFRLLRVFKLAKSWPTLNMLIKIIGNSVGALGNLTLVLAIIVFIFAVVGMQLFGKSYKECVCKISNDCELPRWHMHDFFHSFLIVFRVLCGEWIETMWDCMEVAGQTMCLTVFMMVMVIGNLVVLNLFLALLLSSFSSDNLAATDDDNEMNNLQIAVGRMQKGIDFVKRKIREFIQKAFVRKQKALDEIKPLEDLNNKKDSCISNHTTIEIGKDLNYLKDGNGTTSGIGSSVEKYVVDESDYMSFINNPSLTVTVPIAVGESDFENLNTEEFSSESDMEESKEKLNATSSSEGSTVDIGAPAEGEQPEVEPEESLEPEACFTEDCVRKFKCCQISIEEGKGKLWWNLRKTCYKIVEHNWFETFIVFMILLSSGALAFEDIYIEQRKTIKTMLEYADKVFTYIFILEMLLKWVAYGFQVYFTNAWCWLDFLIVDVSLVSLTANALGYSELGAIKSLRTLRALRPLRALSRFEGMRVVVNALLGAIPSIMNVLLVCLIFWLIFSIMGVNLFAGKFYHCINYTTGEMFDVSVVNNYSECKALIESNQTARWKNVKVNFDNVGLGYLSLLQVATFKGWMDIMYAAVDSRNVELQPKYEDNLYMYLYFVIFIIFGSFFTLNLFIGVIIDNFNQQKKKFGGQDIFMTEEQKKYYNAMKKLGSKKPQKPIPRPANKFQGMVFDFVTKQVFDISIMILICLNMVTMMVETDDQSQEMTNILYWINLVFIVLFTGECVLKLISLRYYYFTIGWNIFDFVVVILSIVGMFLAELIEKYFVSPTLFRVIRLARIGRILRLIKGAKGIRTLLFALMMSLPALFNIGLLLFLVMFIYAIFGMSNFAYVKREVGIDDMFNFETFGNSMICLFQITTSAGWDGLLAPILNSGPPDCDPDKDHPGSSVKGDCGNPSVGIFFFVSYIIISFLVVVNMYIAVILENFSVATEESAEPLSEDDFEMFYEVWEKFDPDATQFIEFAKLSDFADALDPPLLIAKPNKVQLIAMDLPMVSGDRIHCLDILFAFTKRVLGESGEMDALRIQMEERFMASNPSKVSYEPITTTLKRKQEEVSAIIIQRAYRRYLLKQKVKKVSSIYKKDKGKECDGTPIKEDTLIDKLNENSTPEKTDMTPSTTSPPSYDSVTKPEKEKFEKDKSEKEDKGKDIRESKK
Sequence of voltage-gated Ca2+ (Cav1.2) channel (Q13936 whole entry): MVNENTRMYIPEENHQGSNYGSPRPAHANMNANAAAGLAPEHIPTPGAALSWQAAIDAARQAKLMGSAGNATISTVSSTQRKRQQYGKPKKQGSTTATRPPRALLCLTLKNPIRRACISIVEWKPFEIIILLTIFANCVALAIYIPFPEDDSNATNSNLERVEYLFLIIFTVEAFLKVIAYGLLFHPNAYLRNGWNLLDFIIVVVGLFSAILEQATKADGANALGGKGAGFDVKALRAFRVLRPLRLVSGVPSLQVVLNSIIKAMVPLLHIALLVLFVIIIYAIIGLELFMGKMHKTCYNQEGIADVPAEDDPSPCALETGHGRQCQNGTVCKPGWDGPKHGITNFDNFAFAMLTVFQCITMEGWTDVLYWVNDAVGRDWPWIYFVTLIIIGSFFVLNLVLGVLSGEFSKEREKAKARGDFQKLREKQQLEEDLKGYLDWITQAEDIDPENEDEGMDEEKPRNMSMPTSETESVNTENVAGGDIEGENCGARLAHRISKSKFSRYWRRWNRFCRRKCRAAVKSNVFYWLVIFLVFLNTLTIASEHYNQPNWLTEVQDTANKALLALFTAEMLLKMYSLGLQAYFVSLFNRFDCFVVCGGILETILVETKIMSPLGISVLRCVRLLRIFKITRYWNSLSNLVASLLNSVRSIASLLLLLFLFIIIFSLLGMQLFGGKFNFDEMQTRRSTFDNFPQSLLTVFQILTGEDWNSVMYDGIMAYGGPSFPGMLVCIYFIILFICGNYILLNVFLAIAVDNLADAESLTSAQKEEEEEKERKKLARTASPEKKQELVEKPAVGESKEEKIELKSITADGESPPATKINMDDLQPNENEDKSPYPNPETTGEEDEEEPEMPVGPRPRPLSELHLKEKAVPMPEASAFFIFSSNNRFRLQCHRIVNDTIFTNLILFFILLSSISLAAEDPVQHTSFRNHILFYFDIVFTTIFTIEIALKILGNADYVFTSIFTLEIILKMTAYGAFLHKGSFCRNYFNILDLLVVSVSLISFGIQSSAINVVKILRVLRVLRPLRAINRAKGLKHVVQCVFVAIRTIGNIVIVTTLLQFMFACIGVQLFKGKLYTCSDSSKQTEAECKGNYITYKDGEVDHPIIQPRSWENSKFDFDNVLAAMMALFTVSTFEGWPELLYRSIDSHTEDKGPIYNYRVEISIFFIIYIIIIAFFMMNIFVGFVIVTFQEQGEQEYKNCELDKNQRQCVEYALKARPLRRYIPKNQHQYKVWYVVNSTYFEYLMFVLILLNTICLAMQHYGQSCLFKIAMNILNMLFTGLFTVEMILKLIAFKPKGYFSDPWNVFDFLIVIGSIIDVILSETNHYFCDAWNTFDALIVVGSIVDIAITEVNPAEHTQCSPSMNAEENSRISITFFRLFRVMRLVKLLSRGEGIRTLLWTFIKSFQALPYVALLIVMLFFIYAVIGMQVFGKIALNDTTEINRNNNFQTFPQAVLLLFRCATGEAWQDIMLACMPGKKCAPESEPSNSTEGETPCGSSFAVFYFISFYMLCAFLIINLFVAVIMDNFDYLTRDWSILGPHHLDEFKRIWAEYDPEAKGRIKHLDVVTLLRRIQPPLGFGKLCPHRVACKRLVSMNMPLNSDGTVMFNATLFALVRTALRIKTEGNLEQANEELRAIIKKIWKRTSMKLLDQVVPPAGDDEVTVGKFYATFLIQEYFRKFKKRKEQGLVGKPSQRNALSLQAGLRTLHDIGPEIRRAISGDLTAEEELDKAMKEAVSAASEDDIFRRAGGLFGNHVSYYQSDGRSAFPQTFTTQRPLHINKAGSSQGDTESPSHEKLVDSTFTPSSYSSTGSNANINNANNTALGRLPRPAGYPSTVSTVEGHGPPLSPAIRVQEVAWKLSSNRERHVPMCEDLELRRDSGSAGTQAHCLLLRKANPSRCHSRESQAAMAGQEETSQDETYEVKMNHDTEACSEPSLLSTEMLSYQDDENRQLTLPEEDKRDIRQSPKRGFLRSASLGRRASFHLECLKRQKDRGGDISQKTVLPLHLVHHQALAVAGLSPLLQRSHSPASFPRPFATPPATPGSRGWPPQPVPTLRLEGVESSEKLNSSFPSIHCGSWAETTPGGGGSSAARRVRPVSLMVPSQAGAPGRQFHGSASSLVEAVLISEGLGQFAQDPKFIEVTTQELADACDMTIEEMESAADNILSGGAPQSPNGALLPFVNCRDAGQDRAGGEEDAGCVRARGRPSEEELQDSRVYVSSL

In the case of asteropine A [APA], the “Inhibition of bacterial neuraminidases” value (bacterial neuraminidases) is given as “potent competitive inhibitor”.
With `CC[C@H](C)[C@@H]1NC(=O)[C@@H]2CSSC[C@@H]3NC(=O)[C@H](CO)NC(=O)[C@H](CCC(=O)O)NC(=O)CNC(=O)[C@H](CCC(=O)O)NC(=O)[C@H](Cc4ccccc4)NC(=O)[C@H](C)NC(=O)[C@@H](NC(=O)CNC(=O)[C@@H]4CCC(=O)N4)CSSC[C@H](NC(=O)[C@H](CSSC[C@@H](C(=O)N[C@@H](Cc4ccc(O)cc4)C(=O)N[C@@H](Cc4ccc(O)cc4)C(=O)N[C@@H](CC(C)C)C(=O)O)NC(=O)[C@H]([C@@H](C)O)NC(=O)CNC(=O)[C@H](CC(=O)O)NC(=O)[C@@H]4CCCN4C(=O)[C@H](CC(N)=O)NC(=O)CNC(=O)[C@@H]4CCCN4C1=O)NC(=O)[C@@H]1CCCN1C(=O)[C@H](Cc1ccc(O)cc1)NC(=O)[C@H](Cc1ccccc1)NC(=O)[C@H](CCC(N)=O)NC(=O)[C@H](C(C)C)NC(=O)[C@H](CC(N)=O)NC3=O)C(=O)N1CCC[C@H]1C(=O)NCC(=O)N[C@@H](CC(C)C)C(=O)NCC(=O)N[C@@H](CC(C)C)C(=O)N[C@@H]([C@@H](C)O)C(=O)N2` [ASPA, Asteropsin A] ([pGlu]GCAFEGESCNVQFYPCCPGLGLTCIPGNPDGTCYYL-OH; disulfide 3-18, 10-25, 17-34; C-terminus assumed) the “Effect on oscillation frequency or amplitude of neuronal Ca2+ currents” value [1] was “did not modify”, the “Inhibition or activation of NaV1.2” value [2] was “Neither the inhibition nor the activation” and the “Inhibition or activation of Cav1.2” value [3] was “Neither the inhibition nor the activation”. For the same compound, the “Allosteric interaction with the veratridine binding site of the VGSC” value [4] was “not observed”, the Neuraminidase inhibition [5] was “no inhibition” and the Neuraminidase inhibition [6] was “no inhibition”. For the same compound, the Neuraminidase inhibition [7] was “no inhibition”, the Neuraminidase inhibition [8] was “no inhibition” and the Neuraminidase inhibition [9] was “no inhibition”. For the same compound, the “Proteolytic stability against proteinase K” value (proteinase K) was “extraordinary proteolytic stability”, the “Proteolytic stability against thermolysin” value (thermolysin) was “extraordinary proteolytic stability” and the “Toxicity or behavior changes” value (mice) was “no toxicity or behavior changes were observed”. The “Toxicity or behavior changes” value (chicks) was “no toxicity or behavior changes were observed”.
